In patent US10287311B2, “Modified fluorinated nucleoside analogues” (priority 2003, dated 2019):
Where two headings read alike, the source gives them in different places.

Legend:
BVDV = assay: (BVDV) yield reduction assay; type: cell-based, bovine viral diarrhea virus; conditions: for EC90: Bovine viral diarrhea virus isolates and strains
Method: Madin-Darby Bovine Kidney (MDBK) cells were grown in Dulbecco's modified eagle medium supplemented with 10% horse serum and 100 μg/ml penicillin-streptomycin. Cells were seeded in a 96-well plate at 5×10^3 cells/well and incubated for 72h at 37° C. in a humidified 5% CO2 atmosphere. Cells were infected with either cytopathic (NADL strain) or noncytopathic (SD-1 strain) BVDV at a virus dilution of 10-2 and incubated for 45 min. Cell monolayers were washed three times with medium. Fresh medium-containing test compounds in dose response concentrations or ribavirin, as a positive control, were added to cultures and medium containing no drug was added to the no-drug controls. After 72h incubation, supernatant was collected and viral RNA was extracted using the QIAmp Viral RNA Mini Kit (Qiagen, CA). Viral load was determined by Q-RT-PCR using primers specific for either NADL or SD-1 (1).

MDCK cells = assay: Cytotoxicity (CPE, Neutral Red) in MDCK cells of the antiviral tests; conditions: MDCK, Influenza B test
[1] = as above; conditions: dog, MDCK cells
HIV = assay: microbe, parasite or virus in culture; type: cell-based
[2] = test system: Human bone marrow cells, CFU-GM; assay: Bone marrow toxicity assay, CFU-GM; type: cell-based; conditions: CFU-GM
Method: (§1) The culture assays for CFU-GM and BFU-E are performed using a bilayer soft agar or methylcellulose method. Drugs are diluted in tissue culture medium and filtered. After 14 to 18 days at 37° C. in a humidified atmosphere of 5% CO2 in air, colonies of greater than 50 cells are counted using an inverted microscope. The results are presented as the percent inhibition of colony formation in the presence of drug compared to solvent control cultures.

[3] = Cytotoxicity assay (MTS), MRC-5; type: cell-based; conditions: human, MRC-5 cells; MRC-5, MTS assay
[4] = Cytotoxicity assay (MTS), CloneA; type: cell-based; conditions: human, Clone A cells
Method: (§2) 50 μl of 2× drug dilutions were added per well in a 96 well plate. Final concentrations of drug ranged from 1 to 100 μM. A “no drug” (media only) control was used to determine the minimum absorbance values and a “cells+media only” control was used for maximum absorbance value. A solvent control was also used. Cells were then added (PBM: 5×10^4 cells/well; CEM: 2.5×10^3 cells/well; Vero, HepG2, Huh-7, and Clone A: 5×10^3 cells/well) and incubated at 37° C. in a humidified 5% CO2 atmosphere for 3-5 days (PBM: 5 days; CEM: 3 days, all others: 4 days). After incubation, 20 μl of MTS dye was added from Cell Titer Aqueous One Solution Cell Proliferation Assay to each well and the plate was re-incubated for 2-4 hours. The absorbance (490 nm) was then read on an ELISA plate reader using the media only/no cell wells as blanks. Percent inhibition was found and used to calculate the CC50.

replicon HCV RNA = assay: HCV replicon assay (clone not specified)
Influenza B = assay: microbe, parasite or virus in culture; type: cell-based; conditions: MDCK
[5] = Cytotoxicity (CPE, Neutral Red) in KB cells of the antiviral tests; conditions: human
Coronavirus 229E = assay: Antiviral activity, Coronavirus 229E; type: cell-based
[6] = Pharmacokinetics in Rhesus monkeys; type: in vivo; conditions: single oral dose 33.3 mg/kg, Mean ± SD, preliminary
Method: FIG. 3 depicts the pharmacokinetics of β-D-(2′R)-2′-deoxy-2′-fluoro-2′-C-methylcytidine in Rhesus monkeys given a single dose (33.3 mg/kg) oral or intravenous dose of β-D-(2′R)-2′-deoxy-2′-fluoro-2′-C-methylcytidine.

Dengue Type 2 = assay: Antiviral activity, Dengue Type 2 in Vero cells; type: cell-based, Dengue virus; conditions: for EC50: Dengue Type 2, Vero
[7] = Cytotoxicity assay (MTS), CEM; type: cell-based; conditions: human, CEM cells
Method: as §2

[8] = Cytotoxicity assay (MTS), all cell lines tested; type: cell-based; conditions: human, bovine, African green monkey, Clone A, Huh7, HepG2, MDBK, PBM, CEM, Vero and MRC-5 cells; summary in text over all cell lines
Method: as §2
In contrast is the relative toxicity of 2′-C-methyladenosine.

in vitro [9] = conditions: human
VEE = assay: organism not typed; type: cell-based; conditions: Vero
Rhinovirus Type 2 = assay: Antiviral activity, Rhinovirus Type 2 in KB cells; type: cell-based; conditions: for EC50: Enterovirus, Rhinovirus Type 2, KB
[10] = Cytotoxicity assay (MTS), Huh7; type: cell-based; conditions: human, Huh7 cells
Method: as §2

RSV = assay: Antiviral activity, RSV; type: cell-based; conditions: human respiratory syncytial virus
Yellow Fever virus = type: cell-based
[11] = test system: Human bone marrow cells, BFU-E; assay: Bone marrow toxicity assay, BFU-E; type: cell-based; conditions: Bone marrow cell
Method: as §1

HepG2 cells = assay: Mitochondria toxicity assay; type: cell-based; conditions: 7 days
Method: Fifty microliters of 2× drug dilutions were added per well in a 96 well plate. […] Ribosomal DNA levels were used to determine specific toxicity to mitochondria or generally cytotoxicity. HepG2 cells (5,000 cells/well at 50 μl) were added to the plate. The plate was incubated at 37° C. in a humidified 5% CO2 atmosphere for 7 days. After incubation, the supernatant was removed and stored for lactic acid quantification, and total DNA was extracted from cells as described in the RNeasy 96 handbook (February 1999), pages 22-23. No DNA digestions were performed, therefore total RNA and DNA were extracted. The extracted DNA was amplified and the change in mitochondrial DNA and ribosomal DNA for each sample was determined. The fold difference in mitochondrial DNA normalized for ribosomal DNA relative to control was calculated. Lactic acid quantification was performed by the D-Lactic Acid/L-Lactic acid test kit (Boehringer Mannheim/R-Biopharm/Roche). The total amount of lactic acid produced for each sample was found as well as the fold change in lactic acid production (% of lactic acid/% of rDNA) as described in the manufacturers instructions.

SARSCoV = assay: organism not typed; type: cell-based; conditions: Vero
[12] = Cytotoxicity assay (MTS), HepG2; type: cell-based; conditions: human, HepG2 cells
Method: as §2

HBV = assay: Antiviral activity, HBV; type: cell-based
[13] = Cytotoxicity assay (MTS), MDBK; type: cell-based; conditions: bovine, MDBK cells
in vitro [14] = conditions: African green monkey
West Nile virus = assay: Antiviral activity, West Nile virus in Vero cells; type: cell-based; conditions: for EC50: West Nile virus, West Nile, Vero
[15] = Cytotoxicity assay (MTS), PBM; type: cell-based; conditions: PBM cells
Method: as §2

[16] = Cytotoxicity assay (MTS), Vero; type: cell-based; conditions: African green monkey, Vero cells
Method: as §2

[17] = target: HCV 1b NS5B polymerase, Wild-Type NS5B (Hepatitis C virus genotype 1b, UniProt Q9WMX2)
Chain of HCV 1b NS5B polymerase, Wild-Type NS5B (Q9WMX2 2420-3010): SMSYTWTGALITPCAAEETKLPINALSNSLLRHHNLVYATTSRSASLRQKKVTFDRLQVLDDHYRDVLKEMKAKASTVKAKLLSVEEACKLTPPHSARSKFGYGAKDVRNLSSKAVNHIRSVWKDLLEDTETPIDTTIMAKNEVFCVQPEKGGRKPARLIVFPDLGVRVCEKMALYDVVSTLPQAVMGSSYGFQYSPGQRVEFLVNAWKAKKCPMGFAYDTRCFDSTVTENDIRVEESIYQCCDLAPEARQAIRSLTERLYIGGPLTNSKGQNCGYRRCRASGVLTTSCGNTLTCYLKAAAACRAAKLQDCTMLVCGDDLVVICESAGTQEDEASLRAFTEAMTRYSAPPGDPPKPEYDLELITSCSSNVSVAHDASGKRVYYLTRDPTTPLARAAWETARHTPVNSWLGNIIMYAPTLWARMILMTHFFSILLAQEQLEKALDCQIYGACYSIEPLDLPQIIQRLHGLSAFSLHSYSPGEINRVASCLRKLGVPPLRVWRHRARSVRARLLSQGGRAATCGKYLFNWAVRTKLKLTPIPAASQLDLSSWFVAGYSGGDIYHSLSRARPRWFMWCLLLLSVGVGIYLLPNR

[18] = Neutral Red, read-out: EC50, NR

Structure (SMILES): C[C@@]1(F)[C@H](O)[C@@H](CO)O[C@H]1n1ccc(N)nc1=O
- activity on HCV surrogate model BVDV (in words) (BVDV): lack of activity
- EC90 (BVDV; BVDVcp): > 100 µM
- EC90 (BVDV; BVDVncp): > 22 µM
- CC50 (MDCK cells; read-out: CC50, CPE): > 100 µM
- CC50 (MDCK cells; read-out: CC50, NR, Neutral Red): > 100 µM
- CC50 [1]: > 100 µM
- activity on HIV (in words) (HIV): lack of activity
- EC90 (HIV; Human immunodeficiency virus 1, HIV): > 100 µM
- IC50 [2]: 93.9 µM
- CC50 at 4 days [3]: > 100 µM
- CC50 at 4 days [4]: > 100 µM
- EC90 (replicon HCV RNA; Hepatitis C virus, 96 h, read-out: EC90 (1-log reduction of replicon RNA), 4-days incubation / 96 hours, FIG. 1A (converted)): ~2.5 µM
- EC90 (replicon HCV RNA; Hepatitis C virus, read-out: EC90 values, range for the replicon clones, range over replicon clones of Table 1): 1.6 to 4.6 µM
- EC90 (replicon HCV RNA; read-out: EC90 (1-log reduction of replicon RNA) (converted), 4-days incubation / 96 hours, FIG. 1A): 5 µM
- EC50 (Influenza B; [18]): > 100 µM
- EC50 (Influenza B; read-out: EC50, CPE): > 100 µM
- CC50 [5]: > 100 µM
- deaths during the 30-day study (female Swiss mice; female Swiss mice, intraperitoneal, days 0 to 5, 0, 3.3, 10, 33, 100 mg/kg): no mice died
- toxicity observed in the mice (female Swiss mice; mouse, in vivo): No significant toxicity
- activity on Corona virus (in words) (Coronavirus 229E): lack of activity
- EC90 (Coronavirus 229E; Human coronavirus 229E): > 100 µM
- AUC(0-t) ([6]; rhesus monkey, in vivo): 44.2 ± 22.2 µM·h
- half-life ([6]; rhesus monkey, in vivo, read-out: T ½ (converted)): 3.9 ± 0.1 h
- Bioavailability [6]: 21 ± 11 F %
- Cmax [6]: 9.6 ± 2.7 µM
- Tmax [6]: 2 ± 1 h
- activity against Dengue virus (in words) (Dengue Type 2): shows activity
- EC50 (Dengue Type 2; read-out: EC50, CPE): 55 µM
- EC50 (Dengue Type 2; Dengue virus, Vero, Neutral Red, read-out: EC50, NR): > 100 µM
- EC50 (Dengue Type 2; Dengue virus, Vero, read-out: EC50, CPE): 32 µM
- CC50 at 3 days [7]: > 100 µM
- CC50 [8]: 75 to 100 µM
- CC50 (in vitro [9]): > 100 µM
- CC50 (Vero cells; African green monkey): > 100 µM
- CC50 (Vero cells; read-out: CC50, CPE, Vero, SARSCoV test): > 100 µM
- CC50 (Vero cells; read-out: CC50, NR, Vero, SARSCoV test, Neutral Red): > 100 µM
- CC50 (Vero cells; read-out: CC50, NR, Vero, VEE test, Neutral Red): > 100 µM
- EC50 (VEE; read-out: EC50, CPE): > 100 µM
- EC50 (VEE; read-out: EC50, NR): > 100 µM
- activity against Rhinovirus (in words) (Rhinovirus Type 2): shows activity
- EC50 (Rhinovirus Type 2; [18]): 20 µM
- EC50 (Rhinovirus Type 2; read-out: EC50, CPE): 25 µM
- CC50 at 4 days [10]: > 100 µM
- EC90 (RSV): > 100 µM
- activity against Yellow Fever virus (in words) (Yellow Fever virus): shows activity
- IC50 [11]: 98.2 µM
- Lactic Acid Increase (HepG2 cells): No effect ≥ 33 μM
- IC50 (HepG2 cells; Homo sapiens, 168 h, read-out: mtDNA Synthesis (IC50)): > 25 µM
- EC50 (SARSCoV; read-out: EC50, CPE): > 100 µM
- EC50 (SARSCoV; read-out: EC50, NR): > 100 µM
- CC50 at 4 days [12]: 75 µM
- activity on HBV (in words) (HBV): lack of activity
- EC90 (HBV; Hepatitis B virus, HBV): > 10 µM
- CC50 at 4 days [13]: > 100 µM
- CC50 (in vitro [14]): > 100 µM
- activity against West Nile virus (in words) (West Nile virus): shows activity
- EC50 (West Nile virus; NR = Neutral Red, read-out: EC50, NR): 12 µM
- EC50 (West Nile virus; read-out: EC50, CPE): 32 µM
- CC50 at 5 days [15]: > 100 µM
- CC50 at 4 days [16]: > 100 µM

Structure (SMILES): C[C@@]1(F)[C@H](O)[C@@H](COP(=O)(O)OP(=O)(O)OP(=O)(O)O)O[C@H]1n1ccc(N)nc1=O
- IC50 ([17]; IC50, Wild-Type NS5B, batch 1): 1.7 ± 0.4 µM
- IC50 ([17]; IC50, Wild-Type NS5B, batch 2 and 3): 7.7 ± 1.2 µM
- IC50 ([17]; inhibitory concentration 50%, range, NS5B polymerase assay): 1.7 to 7.7 µM

Structure (SMILES): C[C@@]1(O)[C@H](O)[C@@H](CO)O[C@H]1n1cnc2c(N)ncnc21 [2′-C-methyladenosine]
- activity on HCV surrogate model BVDV (in words) (BVDV): greater activity
- EC90 (BVDV; BVDVcp): 1.5 µM
- EC90 (BVDV; BVDVncp): 1.2 µM
- CC50 at 4 days [4]: 37 µM
- CC50 at 4 days [10]: 30 µM
- EC90 (RSV): > 100 µM
- CC50 at 4 days [12]: 58 µM
